Results from US20250257086A1, “EGFR DEGRADATION AGENT” (Beijing Tide Pharmaceutical Co., Ltd., priority 2022, published 2025).
Like-named read-outs stand apart in the source and are kept apart here.

Assays:
Format in all cases: cell-based
[1] = target: Ba/F3 (EGFR^L858R/T790M/C797S) cells (Homo sapiens, UniProt P00533, T790M/C797S/L858R, cells depend on it); test: Antiproliferative activity on Ba/F3 (EGFR L858R/T790M/C797S) cells (CTG)
Procedure, shortened: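 Luminescent CellTiter-Glo read-out on Ba/F3 cells carrying EGFR L858R/T790M/C797S. Inhibition normalised between untreated vehicle and a 10 μM positive drug. IC50 taken from a variable-slope four-parameter fit of inhibition against log compound concentration.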

[2] = tested on: H1975 (EGFR^L858R/T790M) cells; test: Antiproliferative activity on H1975 (EGFR L858R/T790M) cells (CTG); details: Homo sapiens, read-out: IC50 (nM), antiproliferative activity
Procedure: 30 nL of the compound dilution was added to a 384-well plate by Echo (Labcyte, Echo550).
The percent inhibition rate (% inhibition) was calculated by the following formula
[formula] • LUMcmpd: Luminescence value of assay compound. • LUMpositive: Average LUM value of positive drug with a concentration of 10 μM. • LUMvehicle: Average LUM value of negative control group without drug treatment.
The nonlinear regression curve (dose response-variable slope) between the value of inhibition rate (%) and the logarithm of compound concentration was fitted with graphpad prism 8.0, the effect dose curve of compound was drawn, and the IC50 value was calculated.
Y=Bottom+(Top−Bottom)/(1+10^((Log IC50−X)*HillSlope)) • X-axis: logarithm of compound concentration; Y axis: inhibition rate (inhibition).

[3] = target: T1, EGFR^L858R/T790M/C797S protein (Homo sapiens, UniProt P00533, C797S/L858R/T790M); test: Induction of EGFR L858R/T790M/C797S protein degradation in Ba/F3 cells (Alpha counts); details: 24h treatment; for degradation effect on EGFR^L858R/T790M/C797S protein (in words): FIG. 1 and 2
T1 construct: expressed in transfected cells; host or cells: Ba/F3 (EGFR^L858R/T790M/C797S) cells
T1 sequence (P00533 25-1210 T790M/C797S/L858R): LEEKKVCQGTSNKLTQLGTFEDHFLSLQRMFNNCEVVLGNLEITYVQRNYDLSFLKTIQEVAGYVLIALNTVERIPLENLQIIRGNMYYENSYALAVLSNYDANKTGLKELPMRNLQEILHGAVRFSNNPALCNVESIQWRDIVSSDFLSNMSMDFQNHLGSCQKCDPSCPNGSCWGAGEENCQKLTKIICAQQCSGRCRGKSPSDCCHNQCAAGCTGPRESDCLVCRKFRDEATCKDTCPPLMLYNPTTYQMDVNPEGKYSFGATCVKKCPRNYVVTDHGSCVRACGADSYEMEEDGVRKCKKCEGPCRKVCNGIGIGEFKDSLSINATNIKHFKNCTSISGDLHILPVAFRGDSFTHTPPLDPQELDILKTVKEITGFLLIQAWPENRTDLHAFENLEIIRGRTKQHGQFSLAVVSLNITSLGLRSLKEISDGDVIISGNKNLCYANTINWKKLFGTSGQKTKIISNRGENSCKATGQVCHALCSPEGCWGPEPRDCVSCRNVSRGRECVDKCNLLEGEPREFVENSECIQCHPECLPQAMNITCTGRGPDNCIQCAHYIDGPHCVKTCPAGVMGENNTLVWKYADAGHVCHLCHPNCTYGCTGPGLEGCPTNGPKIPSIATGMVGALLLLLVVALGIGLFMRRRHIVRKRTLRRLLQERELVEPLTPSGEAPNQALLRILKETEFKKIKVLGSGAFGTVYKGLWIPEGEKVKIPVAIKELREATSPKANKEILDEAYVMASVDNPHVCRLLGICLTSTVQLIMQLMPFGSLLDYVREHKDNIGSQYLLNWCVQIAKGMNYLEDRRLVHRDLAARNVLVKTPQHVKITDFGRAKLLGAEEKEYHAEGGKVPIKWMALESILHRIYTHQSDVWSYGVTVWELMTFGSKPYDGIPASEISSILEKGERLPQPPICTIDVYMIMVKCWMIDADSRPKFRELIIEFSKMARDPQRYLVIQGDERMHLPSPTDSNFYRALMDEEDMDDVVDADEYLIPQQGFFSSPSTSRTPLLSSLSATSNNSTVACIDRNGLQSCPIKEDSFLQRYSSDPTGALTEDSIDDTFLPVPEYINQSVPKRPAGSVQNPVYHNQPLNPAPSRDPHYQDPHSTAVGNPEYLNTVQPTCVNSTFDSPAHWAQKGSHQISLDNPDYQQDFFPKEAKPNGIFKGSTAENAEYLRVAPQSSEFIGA
Procedure: (§1) Ba/F3 (EGFR^L858R/T790M/C797S) and Ba/F3 (EGFR^Del19/T790M/C797S) cells were cultured according to the culture conditions recommended by ATCC, and analyzed by index.
(§2) Culture conditions: incubated at 37° C., 95% air, 5% CO2 incubator.
(§3) (2) Compound Stock Solution: 10 mM Stock Solution in DMSO, Stored at −20° C.
(§4) The cells in the cell culture bottle were collected, and the cells with viability of >90% can be used in the assay. Cells were seeded in a 96-well plate with 40 μL cells, 1*10^5 cells/well.
(§5) The compounds were serially diluted 3× with DMSO, with the starting concentrations of the compounds being 1.0 mM (EGFR^L858R/T790M/C797S assay) and 10 mM (EGFR^Del19/T790M/C797S assay), respectively, into 10 concentrations to prepare working solutions.
(§6) (5) Compound was Pipetted into the 96-Well Plate to Treat Cells in a 37° C., 95% Air, 5% CO2 Incubator for 24h.
(§7) • 1) 1 μg/mL EGF stimulated cells for 10 min; • 2) After the compound treatment was completed, lysis buffer was added to lyse cells; 10 μL of cell lysate was transferred to the 384-well plate; in addition, control lysate, negative control and 5 μL of acceptor mix were added to the 384-well plate; The plate was shaken on a shaker for 1-2 min; • 3) 5 μL of donor mix was added to each well; the 384-well plate was sealed, shaken on a shaker for 1-2 min, and left in the dark at room temperature overnight; then the plate was read with ELISA reader.
(§8) Alpha counts were fitted by logarithmic treatment of compound concentration with Graphpad Prism 8.0.
(§9) [formula] • X: logarithm of compound concentration; Y: Alpha Counts.

[4] = target: T2, EGFR^Del19/T790M/C797S protein (Homo sapiens, UniProt P00533, C797S/DEL746-750/T790M); test: Induction of EGFR Del19/T790M/C797S protein degradation in Ba/F3 cells (Alpha counts); details: 24h treatment; for degradation effect on EGFR^Del19/T790M/C797S protein (in words): FIG. 3; for DC50: range 1 nM to 10000 nM, FIG. 3, read-out: DC50, reduction of EGFR^Del19/T790M/C797S protein level
T2 construct: expressed in transfected cells; host or cells: Ba/F3 (EGFR^Del19/T790M/C797S) cells
T2 sequence (P00533 with tags, fused parts or gaps DEL746-750/T790M/C797S): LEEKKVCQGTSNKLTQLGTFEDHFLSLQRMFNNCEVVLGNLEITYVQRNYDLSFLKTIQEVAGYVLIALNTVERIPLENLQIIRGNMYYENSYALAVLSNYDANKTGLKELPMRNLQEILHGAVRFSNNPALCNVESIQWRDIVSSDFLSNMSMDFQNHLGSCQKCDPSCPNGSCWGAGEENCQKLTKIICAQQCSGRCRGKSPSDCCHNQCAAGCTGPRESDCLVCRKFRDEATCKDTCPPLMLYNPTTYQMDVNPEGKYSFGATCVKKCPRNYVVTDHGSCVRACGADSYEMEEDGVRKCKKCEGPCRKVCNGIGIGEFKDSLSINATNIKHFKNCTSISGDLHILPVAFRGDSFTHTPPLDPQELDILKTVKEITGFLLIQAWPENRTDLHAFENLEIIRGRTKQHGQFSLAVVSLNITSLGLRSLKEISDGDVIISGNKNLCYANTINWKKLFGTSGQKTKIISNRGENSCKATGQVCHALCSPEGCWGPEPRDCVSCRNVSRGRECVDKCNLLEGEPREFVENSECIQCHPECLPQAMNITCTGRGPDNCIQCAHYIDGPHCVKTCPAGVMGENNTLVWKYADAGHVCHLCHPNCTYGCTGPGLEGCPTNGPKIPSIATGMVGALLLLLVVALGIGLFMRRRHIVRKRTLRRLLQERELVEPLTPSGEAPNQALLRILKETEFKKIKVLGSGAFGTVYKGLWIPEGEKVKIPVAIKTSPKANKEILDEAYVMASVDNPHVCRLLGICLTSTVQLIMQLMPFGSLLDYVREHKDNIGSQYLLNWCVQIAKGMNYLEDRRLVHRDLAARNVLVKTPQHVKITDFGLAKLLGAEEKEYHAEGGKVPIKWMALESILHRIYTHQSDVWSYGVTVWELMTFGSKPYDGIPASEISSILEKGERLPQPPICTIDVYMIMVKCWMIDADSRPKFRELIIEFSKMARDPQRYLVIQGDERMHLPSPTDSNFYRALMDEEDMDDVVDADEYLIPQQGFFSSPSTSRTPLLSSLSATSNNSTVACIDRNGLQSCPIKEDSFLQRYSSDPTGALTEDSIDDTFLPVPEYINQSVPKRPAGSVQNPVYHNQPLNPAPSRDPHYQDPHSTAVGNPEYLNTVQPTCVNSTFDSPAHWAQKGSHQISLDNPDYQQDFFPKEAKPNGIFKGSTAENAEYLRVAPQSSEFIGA
Procedure: as §1, §2, §3, §4, §5, §6, §7, §8, §9

[5] = NCI-H1975, H1975 (EGFR^L858R/T790M) cells, 72h incubation, CTG luminescence
[6] = 72h incubation, CTG luminescence, read-out: IC50 (nM), antiproliferative activity

Sequence of Ba/F3 (EGFR^L858R/T790M/C797S) cells (P00533 whole entry T790M/C797S/L858R): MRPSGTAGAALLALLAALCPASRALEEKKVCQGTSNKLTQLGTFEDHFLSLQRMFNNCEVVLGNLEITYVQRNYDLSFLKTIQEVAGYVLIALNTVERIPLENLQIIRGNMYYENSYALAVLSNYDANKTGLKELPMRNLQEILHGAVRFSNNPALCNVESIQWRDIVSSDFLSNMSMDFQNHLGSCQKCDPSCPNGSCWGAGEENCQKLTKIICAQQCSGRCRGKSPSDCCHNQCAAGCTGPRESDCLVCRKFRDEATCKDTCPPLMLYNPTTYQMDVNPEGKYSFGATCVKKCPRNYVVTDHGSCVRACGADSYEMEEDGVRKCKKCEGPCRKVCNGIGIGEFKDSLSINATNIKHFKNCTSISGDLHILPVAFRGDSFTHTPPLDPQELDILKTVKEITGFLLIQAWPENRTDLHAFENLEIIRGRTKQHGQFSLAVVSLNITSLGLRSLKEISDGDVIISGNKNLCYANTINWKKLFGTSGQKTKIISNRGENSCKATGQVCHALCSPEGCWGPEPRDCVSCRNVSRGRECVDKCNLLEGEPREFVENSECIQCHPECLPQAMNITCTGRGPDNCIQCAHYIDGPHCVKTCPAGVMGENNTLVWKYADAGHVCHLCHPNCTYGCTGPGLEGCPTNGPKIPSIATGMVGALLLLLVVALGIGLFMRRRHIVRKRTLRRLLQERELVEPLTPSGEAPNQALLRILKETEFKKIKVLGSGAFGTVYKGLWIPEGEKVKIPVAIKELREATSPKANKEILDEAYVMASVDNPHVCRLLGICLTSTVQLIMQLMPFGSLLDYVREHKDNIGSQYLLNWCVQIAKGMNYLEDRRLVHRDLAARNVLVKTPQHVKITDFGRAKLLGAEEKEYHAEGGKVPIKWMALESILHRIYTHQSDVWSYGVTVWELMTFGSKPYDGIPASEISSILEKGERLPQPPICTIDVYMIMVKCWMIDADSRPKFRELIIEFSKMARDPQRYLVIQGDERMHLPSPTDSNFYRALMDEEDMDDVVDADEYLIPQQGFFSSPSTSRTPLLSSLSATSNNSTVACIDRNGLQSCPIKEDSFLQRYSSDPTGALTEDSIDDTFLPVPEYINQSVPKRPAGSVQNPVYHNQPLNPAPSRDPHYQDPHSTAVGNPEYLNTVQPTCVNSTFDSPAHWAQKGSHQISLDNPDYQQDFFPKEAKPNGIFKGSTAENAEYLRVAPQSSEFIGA

| Compound | GI50 ([1]; read-out: IC50 (nM), antiproliferative activity, 72h incubation, CTG luminescence) | IC50 [2, 5] | degradation effect on EGFR^L858R/T790M/C797S protein (in words) [3] | GI50 [1, 6] | degradation effect on EGFR^Del19/T790M/C797S protein (in words) [4] | DC50 [4] | DC50 ([3]; range 1 nM to 1000 nM, FIG. 1 and 2, read-out: DC50, reduction of EGFR^L858R/T790M/C797S protein level) | IC50 ([2]; NCI-H1975, 72 h) |
| --- | --- | --- | --- | --- | --- | --- | --- | --- |
| COc1cc(N2CCC(N3CCN(C)CC3)CC2)ccc1Nc1ncc(Cl)c(Nc2ccccc2P(C)(C)=O)n1 [Brigatinib, reference compound] | 355 nM | 747 nM | no degradation effect | – | – | – | – | – |
| CC#CC(=O)Nc1cc(Nc2ncc(Cl)c(Nc3ccccc3P(C)(C)=O)n2)c(OC)cc1N1CCC(N2CCN(CCCC#Cc3cccc4c3CN(C3CCC(=O)NC3=O)C4=O)CC2)CC1 (stereo not drawn) [Compound D058, N-(5-((5-chloro-4-((2-(dimethylphosphoryl)phenyl)amino)pyrimidin-2-yl)amino)-2-(4-(4-(5-(2-(2,6-dioxopiperidin-3-yl)-1-oxoisoindolin-4-yl)pent-4-yn-1-yl)piperazin-1-yl)piperidin-1-yl)-4-methoxyphenyl)but-2-ynamide] | – | 14.6 nM | – | 35.6 nM | significant degradation effects | 25.1 nM | – | – |
| C=CC(=O)Nc1cc(Nc2ncc(Br)c(Nc3ccccc3P(C)(C)=O)n2)c(OC)cc1N1CCC(N2CCN(CCCC#Cc3cccc4c3CN(C3CCC(=O)NC3=O)C4=O)CC2)CC1 (stereo not drawn) [Compound D478, N-(5-((5-bromo-4-((2-(dimethylphosphoryl)phenyl)amino)pyrimidin-2-yl)amino)-2-(4-(4-(5-(2-(2,6-dioxopiperidin-3-yl)-1-oxoisoindolin-4-yl)pent-4-yn-1-yl)piperazin-1-yl)piperidin-1-yl)-4-methoxyphenyl)acrylamide] | – | 17.6 nM | – | 30.3 nM | – | – | – | – |
| C=C(F)C(=O)Nc1cc(Nc2ncc(Cl)c(Nc3ccccc3P(C)(C)=O)n2)c(OC)cc1N1CCC(N2CCN(CCCC#Cc3cccc4c3CN(C3CCC(=O)NC3=O)C4=O)CC2)CC1 (stereo not drawn) [Compound D552, N-(5-((5-chloro-4-((2-(dimethylphosphoryl)phenyl)amino)pyrimidin-2-yl)amino)-2-(4-(4-(5-(2-(2,6-dioxopiperidin-3-yl)-1-oxoisoindolin-4-yl)pent-4-yn-1-yl)piperazin-1-yl)piperidin-1-yl)-4-methoxyphenyl)-2-fluoroacrylamide] | – | – | significant degradation effect | 37.3 nM | significant degradation effects | 29.7 nM | 117 nM | – |
| C=CC(=O)Nc1cc(Nc2nccc(-c3cn(C)c4ccccc34)n2)c(OC)cc1N(C)CCN(C)C [Osimertinib] | – | – | – | – | – | – | – | 10.7 nM |
